Data from patent publication US6960610B2, “Use of glycogen phosphorylase inhibitors for treatment of cardiovascular diseases” (Novo Nordick, A/S, priority 2002, dated 2005).

Tests used:
[1] = system: isolated perfused rabbit hearts; experiment: Ischemia induced arrhythmia in the isolated perfused rabbit heart (Langendorff); settings: 0.4 μg/ml, n=7
Description: The model evaluates the effect of a test compound on ischemia induced arrhythmia in isolated perfused rabbit hearts. The hearts were excised from rabbits and perfused via an aortic canula in a Langendorff set-up equipped with ECG and MAP electrodes. Global normotherm ischemia was induced by turning off the perfusion for 30 min. After 30 min the heart was reperfused and the total duration of arrhythmia was determined. Furthermore, ECG and surface monophasic action potentials (MAPS) were scored to describe the severity of ischemic damage.

[2] = system: Rabbits (myocardial infarct); experiment: Anaesthetised rabbit model of myocardial infarction induced by transient coronary artery occlusion; format: in vivo; settings: 10 mg/kg b.i.d.; left coronary artery ligated 30 min, reperfusion 2 hours
Description: Method: Rabbits were anaesthetized and mechanically ventilated with oxygen enriched air. A thoracotomy was performed and an infarct was produced by ligating the left coronary artery for 30 min. After 30 min. the heart was reperfused for 2 hours. The heart was excited and reperfused in Langendorff mode. The coronary artery was reoccluded and the heart was perfused with ink to delineate the area at risk. The heart was removed and cut into 2 mm slices and stained with triphenyl tetrazolium chloride. The area at risk and the infarct size was determined by planimetry.

heart tissue glycogen = experiment: Glycogen content of heart tissue following global ischemia; settings: in the presence of 0.4 μg/ml compound
Description: Method: The glycogen contents of freeze-clamped heart samples were determined enzymatically as μmol of glycosyl units per gram wet weight after boiling the tissue in 0.4 N KOH and subsequent degradation of glycogen with amyloglycosidase

OC[C@H]1NC[C@@H](O)[C@@H]1O [(2R,3R,4R)-3,4dihydroxy-2-hydroxymethylpyrrolidine]
MAP score ([1]; 30 min global ischemia, reperfusion, without compound 2.3±0.3): 0.9±0.1 | ECG score ([1]; 30 min global ischemia, reperfusion, without compound 2.4±0.2): 0.7±0.3 | average arrhythmia length following reperfusion ([1]; 30 min global normotherm ischemia, then reperfusion, without compound 18.0±5.6): 0.0 ± 0.0 min | reduction of infarct size compared to untreated rabbits [2]: 45% | glycogen content before ischemia (heart tissue glycogen; starting value): 16.9±1.5 glycosyl units/g wet weight | glycogen content after 30 min. of global ischemia (heart tissue glycogen; without compound 2.6±0.8): 6.9±1.1 glycosyl units/g wet weight
